Where no end group is shown, it is not given here. The star is where a group is joined. For = O=C*
B1: recombinant Wnt-5a: recombinant Wnt-5a protein (R&D Systems) (protein, UniProt P41221 62-380, looked up)
Protein Wnt-5a: IIGAQPLCSQLAGLSQGQKKLCHLYQDHMQYIGEGAKTGIKECQYQFRHRRWNCSTVDNTSVFGRVMQIGSRETAFTYAVSAAGVVNAMSRACREGELSTCGCSRAARPKDLPRDWLWGGCGDNIDYGYRFAKEFVDARERERIHAKGSYESARILMNLHNNEAGRRTVYNLADVACKCHGVSGSCSLKTCWLQLADFRKVGDALKEKYDSAAAMRLNSRGKLVQVNSRFNSPTTQDLVYIDPSPDYCVRNESTGSLGTQGRLCNKTSEGMDGCELMCCGRGYDQFKTVQTERCHCKFHWCCYVKCKKCTEIVDQFVCK

Tests used:
Assay type in all cases: cell-based, human
MDA-MB-231 cells = assay: MTT proliferation assay; conditions: for growth inhibition (MTT) after tamoxifen: MDA-MB-231, stimulation 24 or 48 hours then tamoxifen 5 μM final 20 hours, compared with tamoxifen alone; for effect on breast cancer cell proliferation alone (MTT): without tamoxifen
Experimental: MDA-MB-231 cells were grown in 6 well plates and stimulated with recombinant Wnt-5a protein (rW5a) or the Wnt-5a derived Foxy-5 peptide (F5), for 24 or 48 h. Cells were treated with tamoxifen for the final 20 h and their apoptotic responses were measured via different methods. […] Arrows highlight apoptotic cells. Bars represent […]. B: Following treatment with rW5a, F5 and tamoxifen, or tamoxifen alone, cells were lysed and subjected to SDS-PAGE, transferred to nitrocellulose membranes and blotted for cleaved caspase 3. C: Treated cells were assessed for their relative caspase 3 activity using fluorometric spectrophotometry. The graph represents 6 separate experiments. * P<0.01, ** P<0.001. D: MTT assays were also performed on MDA-MB-231 cells treated with rWnt-5a, F5 and tamoxifen, or tamoxifen alone (MDA-MB-231 and MCF-7 cells) to assess cell growth inhibition. The graph represents the average of 6 separate experiments, with standard deviation represented by error bars. ** P<0.01, *** P<0.001.
Cell proliferation was measured via MTT assay (Vybrant) following manufacturers instructions. Briefly, MDA-MB-231 and MCF-7 cells were grown in 96 well plates, then either left unstimulated, or stimulated with rWnt-5a (0.6 μg/ml) or Foxy-5 peptide (100 μM) for 24 or 48 hours. Cells were then treated with 5 μM tamoxifen (Sigma) for the final 20 hours. All cells were then labeled with MTT (3-(4,5-dimethylthiazol-2-yl)-2,5-diphenyltetrazolium bromide), incubated at 37° C. for 4 hours and absorbance measured on a Biorad 680 microplate reader (Biorad). The raw absorbance was measured in 9 replicates at 570 nm, and read outs averaged and adjusted accordingly. The experiment was performed 6 times, and results averaged.

ERα = ERα mRNA by RT-PCR in stimulated MDA-MB-468 cells; conditions: time points 6, 12, 18 and 24 hours
Experimental: Breast cancer cells were grown in 6 well plates and stimulated with recombinant Wnt-5a protein (rW5a) or the Wnt-5a derived Foxy-5 peptide (F5), for 6, 12, 18 or 24 h. RNA was extracted at the end time point, cDNA synthesized and subjected to RT-PCR for ERα and the housekeeping gene, β-actin. A: MDA-MB-231 breast cancer cells, B: MDA-MB-468 breast cancer cells. The positive control (Pos) is RNA extracted from T47D cells which express ERα. The negative control represents a water control.
Stimulation of cells was performed with recombinant Wnt-5a (0.6 μg/ml) and recombinant Wnt-3a (0.1 μg/ml and in a control experiment, 0.6 μg/ml) (R&D Systems Abington, UK) for times as indicated. The Wnt-5a derived formylated hexapeptide, Foxy-5 (formyl-MDGCEL) (SEQ. ID. NO. 1) designed in the laboratory of the inventors, and a formylated random hexapeptide (formyl-MSADVG) (SEQ: ID: NO: 16) were either synthesized by Pepscan Presto (Lelystad, The Netherlands) or Inbiolabs (Tallinn, Estonia). The peptides were purified by RP-HPLC and mass spectrometry, and the >95% pure peptides were synthesized three times. […]
RNA extraction was performed in a designated clean RNA area with the addition of 500 μl TRIzol to each sample. […] The RNA concentration was measured using a Nanodrop Spectrophotometer ND-1000 (Bio-Rad (Hercules Calif.)). […]

[1] = tested on: progesterone receptor (PR); assay: Progesterone receptor mRNA by semi-nested RT-PCR in MDA-MB-231 cells; conditions: after 96 hours stimulation
Excerpt: A: Following treatment, cells were lysed and subjected to SDS-PAGE, transferred to nitrocellulose membranes and blotted for phospho-ERα expression. The positive control (Pos) represents cell lysates from T47D cells expressing ERα B and C: RNA was also extracted from stimulated cells and samples tested for progesterone receptor (PR) (B) and pS2 (C) mRNA using semi-nested RT-PCR. The positive control (Pos) is RNA extracted from T47D cells that express ERα. The negative control represents a water control. PCR results are representative of three separate experiments.
cDNA was synthesized from 1 μg of total RNA using M-MuLV reverse transcriptase (Fermentas) in a MJ Mini Personal Thermal Cycler (Bio-Rad (Hercules Calif.)). All RT-PCR was performed in a designated clean PCR hood. RT-PCR was performed using a master mix containing with 5 μl of 10× buffer, 5 μl of 25 mM MgCl2, 1 μl 10 mM dNTP, 1 μl forward primer, 1 μl reverse primer and 0.2 μl of Taq polymerase (Fermentas (Ontario, Canada)) per sample. For detection of the progesterone receptor (PR), semi nested RT-PCR was performed to increase sensitivity, whereby 10 μl of the initial PCR reaction product was added to a second PCR reaction with a second internal reverse primer. Both A and β isoforms are amplified with these primers.

ERα promoter = assay: Bisulfite genomic sequencing of the ERα promoter in MDA-MB-231 cells; conditions: 48 hours, rWnt-5a 0.6 μg/ml, Foxy-5 100 μM
Experimental: MDA-MB-231 cells were grown in normal media and either left untreated, or stimulated with rWnt-5a protein (rWnt-5a, 0.6 μg/ml)) or the Wnt-5a derived Foxy-5 peptide (F5, 100 μM), for 48 hours. MCF-7 cells were grown for the same amount of time, and were left untreated. DNA was extracted from each sample and subjected to bisulfite modification. Bisulfite treated DNA was subjected to bisulfite genomic sequencing (BGS) of the ERα promoter using nested PCR with primers for the ERα promoter region. PCR products were cloned and 10 random clones sequenced. Filled (black) circles represent methylation at a given cytosine, empty (white) circles represent either unmethyllated cytosine or cytosines demethylated following rWnt-5a or Foxy-5 treatment. The numbers represent the position of CpG dinculeotides relative to the transcription start site (+1). The TATA box is located between positions −17 and +13.
DNA was extracted from cells according to standard procedures. 1 μg of DNA was then bisulfite treated using the EpiTect Bisulfite Kit (Qiagen) and amplified via nested PCR with primers for the ERα promoter region. PCR products were cloned using the TOPO TA cloning kit (Invitrogen). 10 random clones were sequenced using an AB13730 DNA analyzer (Applied Biosystems).

Row | Molecule | growth inhibition (MTT) after tamoxifen (MDA-MB-231 cells) | effect on breast cancer cell proliferation alone (MTT) (MDA-MB-231 cells) | stimulation time after which ERα mRNA was detected (ERα) | PR mRNA [1] | methylation of the ERα CpG island (ERα promoter)
1 | formyl-MDGCEL (For-MDGCEL; listed as Homo sapiens) [Foxy-5] | statistically significant growth inhibition | Neither rWnt-5a nor Foxy-5 had an effect | 6 h | detected | demethylated
2 | B1 | statistically significant growth inhibition | Neither rWnt-5a nor Foxy-5 had an effect | 12 h | detected | demethylated

Source: patent publication US20110124574A1, “RESTORATION OF ESTROGEN RECEPTOR-(ALPHA) ACTIVITY” (priority 2008, published 2011)
